Assay results: paper PMC8138767, “Intrinsically disordered substrates dictate SPOP subnuclear localization and ubiquitination activity” (The Journal of Biological Chemistry, 2021)
Changes are numbered by the printed parent chain. Names may count otherwise. Values belong to the molecule of their own block, whether it stands above or below them. Where no end group is shown, it is not given here.

What was measured:
[1] = target: T1, SPOP–MATH (residues 28–166) (Homo sapiens, UniProt O43791); assay: Competition fluorescence anisotropy, displacement of f-Puc from SPOP–MATH; assay type: binding; conditions: competition FA; 40 nM f-Puc, 6 μM SPOP–MATH; 50 mM sodium phosphate pH 6.5, 50 mM NaCl, 5 mM DTT, 1% BSA, 0.01% Triton X-100; complete competitive binding model; ± standard deviation of three independent replicates (Table S4)
T1 construct: glutathione S-transferase (GST) (N, cleaved yes); 6X His (N, cleaved yes); made in house; host or cells: E. coli BL-21(DE3)
Source text: An Escherichia coli codon-optimized DNA sequence encoding amino acids 205 to 283 of the human Pdx1 sequence (Pdx1-C) in the multiple cloning site of pET49b(+) was purchased from GeneArt (Thermo Fisher). The pET49b(+) backbone encodes for N-terminal glutathione S-transferase and 6X His tags, followed by a 3C protease recognition motif. In all experiments described herein, a mutant containing an exogenous tryptophan at the N terminus of the human Pdx1-C sequence was used for the purposes of quantitation. Mutations in Pdx1-C were generated by Q5 site-directed mutagenesis (New England Biolabs) with primers designed on NEBbasechanger.com according to the manufacturer protocol. Similarly, an E. coli–optimized DNA sequence encoding residues 28 to 166 of human SPOP (SPOP–MATH) was purchased in pET49b(+) from GeneArt. […] A plasmid encoding His–SUMO–SPOP human residues 28 to 359 harboring a tobacco etch virus protease recognition site directly N terminal to the beginning of the native SPOP protein sequence was generated previously ([21]).
All FA experiments were conducted in 50 mM sodium phosphate, pH 6.5, 50 mM sodium chloride, 5 mM DTT, 1% BSA, and 0.01% Triton X-100. In all experiments, the source of fluorescence signal was f-Puc purchased from GenScript, at a final concentration of 40 nM. For direct FA measurements, SPOP–MATH or SPOP28–359 of concentrations between 0.001 and 300 μM was added to wells of 96- or 384-well plates containing f-Puc and buffer. For competition-mode experiments, serial dilutions of each competitor (Pdx1 peptide or recombinant protein) were prepared ranging from ∼0.01 μM to ∼2 mM (concentration range varied based on peptide solubility) in wells of 96- or 384-well plates containing 40 nM f-Puc and 6 μM SPOP–MATH or SPOP28–359. The fluorescence polarization of each well was measured (from which FA was calculated) using either a TECAN Infinite M1000 Pro or BioTek Synergy 4 fluorometer. All experiments were performed with at least three technical replicates. FA data points were fit to a complete competitive binding model ([23]) to determine dissociation constants using in-house Python scripts (see Quantification and statistical analysis).
All titrations were performed in triplicate for rigor. Direct FA titrations were performed to determine the dissociation constants of the fluorescent probe toward SPOP constructs. Direct titration data were fit according to equation 6 in ([54]). Competition mode titration data were fit according to the fitting function in ([23]). Average dissociation constants and standard error from the mean for all constructs from competition experiments may be found in Table S4. The python scripts used in plotting and fitting may be found at https://github.com/idpemery/spop-pdx1.

V5-SPOP in HeLa cells = assay: Immunofluorescence: V5-SPOP localization on coexpression of GFP–Pdx1 variants; assay type: cell-based; conditions: coexpressed with V5-SPOP, 24 h after transfection, three biological replicates
Description: (§1) HeLa cells were cultured under sterile conditions with Dulbecco’s modified Eagle’s medium (DMEM) (Gibco) supplemented with 10% fetal bovine serum and antibiotics/antimycotics (Gibco) (see Table S5 for key reagents and resources). T-REx-293 cells (cat. no. R710-07) were obtained from Invitrogen. Cells were grown on DMEM supplemented with 10% fetal bovine serum (Gibco), GlutaMax (Gibco), and Penicillin-Streptomycin (Gibco) and kept under selection by 5 μg/ml blasticidin. All cells were grown at 37 °C under 5% CO2 and were mycoplasma free at the time the experiments were performed.
(§2) A plasmid encoding full-length human Pdx1 (amino acids 1-283) in pcDNA3.1 with a C-terminal GFP tag was purchased from GenScript. Full-length mouse SPOP (identical to the human sequence) with a V5 epitope tag in pcDNA3 was generated previously ([21]). The coding sequence for full-length mouse SPOP was inserted into pcDNA4/TO/myc (Invitrogen) for the T-REx system. pcDNA3-myc-CUL3 (cat no. 19893) and pcDNA–HA2–ROC1 (Rbx1) (cat no. 19897) were obtained from Addgene. pcDNA3 containing His-ubiquitin was a gift from Wenyi Wei.
For immunofluorescence experiments, 0.5 × 10^6 cells were seeded on borosilicate glass coverslips in 6-well plates. After 24 h, cells were transfected with 400 ng of each plasmid using the Qiagen Effectene transfection reagent according to the manufacturer protocol. 24 h after transfection, the cells were treated with 4% paraformaldehyde in PBS for 30 min at RT. Cells were permeabilized with 0.1% Triton X-100 in PBS (PBST) for 5 min at 21 °C, followed by blocking in 0.5% BSA in PBST for 1 h at 21 °C. Signal from GFP-tagged proteins was observed directly. Cells were stained in primary antibodies diluted in 0.5% BSA in PBST overnight at 4 °C with mouse anti-SC-35 (1:300, ab11826; Abcam) and chicken anti-V5 (1:300, NB600-379; Novus Biologicals). Cells were incubated with secondary antibodies for 2 h at 21 °C. The secondary antibodies used were goat anti-mouse Alexa Fluor 647 (1:250, A-21235; Thermo Fisher) and goat anti-chicken Alexa Fluor 555 (1:250, A-21437; Thermo Fisher). Cells on coverslips were treated with 300 nM 4′,6-diamidino-2-phenylindole (DAPI) for 5 min at 21 °C. Coverslips were mounted on glass slides with ProLong Diamond mounting reagent (Thermo Fisher) and cured before imaging on a Zeiss LSM 880 Upright microscope. All images were analyzed and prepared in Fiji ([53]).
All immunofluorescence data were averaged over three biological replicates. Cells not expressing both Pdx1 and SPOP were excluded from sampling. Raw images were collected in the Zeiss Zen software and then exported for viewing and analysis in Fiji. Nuclei of individual cells were designated manually in Fiji using the DAPI channel as a guide. The cells were binned based on whether SPOP was localized to nuclear speckles (puncta); cells with both diffuse and punctate SPOP signal were binned as “speckled.” The grayscale signal intensity of the green channel (Pdx1–GFP) was averaged over the DAPI-designated nuclear area. Next, the raw GFP intensity data points (one data point per cell analyzed) were plotted to generate a violin plot distribution. The average, minimum, and maximum values are shown by horizontal lines on the plot. Individual data points are also shown for rigor. […] All plotting and statistical tests were performed using in-house python scripts that can be found at https://github.com/idpemery/spop-pdx1.

[2] = tested on: SPOP-mediated ubiquitination in T-REx-293 cells; assay: SPOP-mediated ubiquitination of Pdx1 variants (Ni-NTA pulldown, immunoblot); assay type: cell-based; conditions: SPOP–myc and GFP–Pdx1 coexpressed 24 h, then 20 μM MG132 or DMSO for 4 h, immunoblot (Fig. 6C)
Description: We next sought to determine whether SPOP-driven ubiquitination of Pdx1 could occur outside of previously implicated droplets. Given the SPOP relocalization phenotype that we observe in cells that express SPOP and Pdx1, we hypothesized that the ubiquitination activity was occurring in the diffuse nucleoplasm and that optimal activity requires both SB sites. To test this hypothesis, we performed in cell ubiquitination assays with GFP–Pdx1 variants. SPOP–myc and GFP–Pdx1 were coexpressed for 24 h in T-REx-293 cells, followed by a 4-h treatment with 20 μM MG132 or dimethyl sulfoxide. Proteins modified with His-ubiquitin were enriched by pulldown on nickel-nitrilotriacetic acid (Ni-NTA) resin.
as §2
Ubiquitination and Western blots
(§3) T-REx-293 cells (Invitrogen) were seeded at a density of 0.8 × 10^6 per well in 6-well plates (tissue culture–treated plates (cat. no 3516, Corning)). After 24 h, cells were transfected with plasmids encoding Pdx1–GFP, SPOP–myc, His–ubiquitin, HA–Rbx1, and myc–CUL3 (as indicated) using the Qiagen Effectene transfection reagent. 24 h after transfection, the cells were treated with either dimethyl sulfoxide or 20 μM MG132 for 4 h before being harvested. Cells were lysed in buffer A (6 M guanidine HCl, 100 mM sodium phosphate, pH 8.0, and 10 mM imidazole). The lysates were sonicated, cleared, and incubated with Ni-NTA Agarose (Qiagen) for 3 h at RT, followed by 16 h at 4 °C. The beads were washed twice with buffer A and twice with a buffer composed of 1:3 buffer A:buffer T1 (buffer T1: 25 mM Tris HCl, pH 8.0, and 20 mM imidazole). The beads were finally transferred to buffer T1 and then boiled in the SDS-PAGE loading buffer containing 300 mM imidazole. Pdx1 stability assays were performed as described above, except that the cells were not treated with MG132. Cells expressing Pdx1–GFP or a variant were harvested 28 h after transfection, resuspended in 2x SDS-loading dye, and boiled for 5 min before SDS-PAGE analysis.
(§4) All proteins were resolved by SDS-PAGE. Separated proteins were analyzed by immunoblotting using either the ECL or the ECL Select Western blotting detection reagents (Amersham). The antibodies used were mouse anti-Pdx1 used at 1:500 for pulldown or 1:2000 for inputs (clone 26771, MAB2419, R&D Systems), mouse anti-myc (1:250, clone 9E10, Santa Cruz Biotechnology), and rabbit anti-GAPDH (1:8000, clone EPR1689, Abcam). horseradish peroxidase-conjugated secondary antibodies were sourced from Jackson ImmunoResearch Laboratories and used at 1:20,000 dilution (goat anti-rabbit IgG, 111-035-003 and goat anti-mouse, 115-035-003).

[3] = tested on: SPOP-dependent turnover in T-REx-293 cells; assay: SPOP-dependent Pdx1 stability (Western blot); assay type: cell-based; conditions: no MG132, harvested 28 h after transfection, Western blot (Fig. S3D)
Description: In a similar experiment, the cells were not treated with a proteasome inhibitor to observe the SPOP-dependent stability of each Pdx1 variant.
as §3, §4

HeLa cells = assay: Immunofluorescence: subcellular localization / phase separation of the protein itself; assay type: cell-based; conditions: SC-35 nuclear speckle marker
Description: as §1, §2
For immunofluorescence experiments, 0.5 × 10^6 cells were seeded on borosilicate glass coverslips in 6-well plates. After 24 h, cells were transfected with 400 ng of each plasmid using the Qiagen Effectene transfection reagent according to the manufacturer protocol. 24 h after transfection, the cells were treated with 4% paraformaldehyde in PBS for 30 min at RT. Cells were permeabilized with 0.1% Triton X-100 in PBS (PBST) for 5 min at 21 °C, followed by blocking in 0.5% BSA in PBST for 1 h at 21 °C. Signal from GFP-tagged proteins was observed directly. […] All images were analyzed and prepared in Fiji ([53]).
All immunofluorescence data were averaged over three biological replicates. […] Next, the raw GFP intensity data points (one data point per cell analyzed) were plotted to generate a violin plot distribution. […]

[4] = target: T2, SPOP-MATH (human SPOP residues 28-166) (human, UniProt O43791 28-166); assay: fluorescence polarisation; competition fluorescence anisotropy: competitor (~0.01 μM to ~2 mM) displaces 40 nM f-Puc from 6 μM SPOP-MATH or SPOP28-359; complete competitive binding fit; 50 mM sodium phosphate pH 6.5, 50 mM NaCl, 5 mM DTT, 1% BSA, 0.01% Triton X-100; conditions: both partners purified
T2 construct: N-terminal Gly-Pro-Gly cloning artefact left after 3C protease; speckle-type POZ protein (SPOP), human, MATH domain, residues 28-166; uniformly 15N-labelled for the NMR experiments; also called 15N-SPOP-MATH; source: E. coli BL-21(DE3), purified (Ni-NTA, 3C protease, second Ni-NTA, Sephacryl S100); not shown: GST, N-terminal, cleaved; His6, N-terminal, cleaved
T2 sequence (O43791 other isoform, or with tags, fused parts or gaps): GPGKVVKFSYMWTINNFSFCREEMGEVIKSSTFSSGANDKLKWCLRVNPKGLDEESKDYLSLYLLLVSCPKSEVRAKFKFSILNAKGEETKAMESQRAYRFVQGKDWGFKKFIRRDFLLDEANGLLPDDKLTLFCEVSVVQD

Molecule: GFP–Pdx1–ΔSBM1: GFP–Pdx1 with deletion of the higher-affinity SBM1 (residues 224–236)
SPOP relocalization from nuclear speckles by Pdx1 variant (V5-SPOP in HeLa cells): all cells, regardless of GFP–Pdx1–ΔSBM1 levels, contain punctate V5-SPOP
ubiquitination of Pdx1 variant [2]: impedes ubiquitination, as shown by no shift from the unmodified band
ubiquitination of Pdx1 variant ([2]; listed as Pdx1 lacking SBM1): not observably ubiquitinated
SPOP-dependent Pdx1 stability [3]: more stable relative to the WT protein

B1: V5-SPOP: full-length mouse SPOP (identical to the human sequence) with a V5 epitope tag (protein, UniProt Q6ZWS8 1-374, looked up)
chain: MSRVPSPPPPAEMSSGPVAESWCYTQIKVVKFSYMWTINNFSFCREEMGEVIKSSTFSSGANDKLKWCLRVNPKGLDEESKDYLSLYLLLVSCPKSEVRAKFKFSILNAKGEETKAMESQRAYRFVQGKDWGFKKFIRRDFLLDEANGLLPDDKLTLFCEVSVVQDSVNISGQNTMNMVKVPECRLADELGGLWENSRFTDCCLCVAGQEFQAHKAILAARSPVFSAMFEHEMEESKKNRVEINDVEPEVFKEMMCFIYTGKAPNLDKMADDLLAAADKYALERLKVMCEDALCSNLSVENAAEILILADLHSADQLKTQAVDFINYHASDVLETSGWKSMVVSHPHLVAEAYRSLASAQCPFLGPPRKRLKQS
modifications: full-length V5 tag
V5-SPOP localization when expressed alone (HeLa cells): localizes to nuclear speckles

B2: W131G: substrate binding-impaired SPOP mutant (protein, UniProt O43791 1-374, looked up, variant W131G)
Speckle-type POZ protein: B1 chain with W131G
modifications: V5 tag
ubiquitination of Pdx1 variant [2]: lack of any shift of the Pdx1 band

Next, values leading:

KD (binding to SPOP-MATH) [1]: no binding
Molecule: Ac-GSSSEADEMAKALEAELNDLM [Mock (Fcp1), mock peptide, residues 941-961, negative control, reference compound]

Kd [1]: > 600 µM
Molecule: Ac-LSASPQPSSVAPRRPQEPR [Pdx1–SBM2]

Kd [4]: 630 µM
B3: Pdx1-SBM2 peptide (human Pdx1 residues 265-283) (peptide)
peptide: Ac-LSASPQPSSVAPRRPQEPR
notes: pancreatic and duodenal homeobox 1 (Pdx1), human, residues 265-283; also called Pdx1 265-283; source: synthetic peptide (Tufts University Core Facility, HPLC purified)
